Read-outs that look alike come from different tables or passages of the source.
How the values were obtained:
Format in all cases: cell-based
HeLa cells = experiment: Cytotoxicity in mock-infected HeLa cells (tetrazolium-based colorimetric assay); details: human, 7 days
From the text: (§1) The percent protection against cytopathology caused by viruses (antiviral activity or IC50) achieved by tested compounds and their cytotoxicity (CC50) were both calculated from dose-response curves. The selectivity of the antiviral effect is represented by the selectivity index (SI), calculated by dividing the CC50 (cytotoxic dose for 50% of the cells) by the IC50 (antiviral activity for 50% of the cells).
(§2) Automated tetrazolium-based colorimetric assays were used for determination of IC50 and CC50 of test compounds. Flat-bottom, 96-well plastic microtiter trays were filled with 180 μl of Eagle's Basal Medium, supplemented with 5% FCS (0% for FLU) and mM Hepes buffer. Subsequently, stock solutions (7.8× final test concentration) of compounds were added in 45 μl volumes to a series of triplicate wells so as to allow simultaneous evaluation of their effects on virus- and mock-infected cells. Five five-fold dilutions were made directly in the microtiter trays using a robot system. Untreated virus controls, and HeLa cell controls were included in each test. Approximately 100 TCID50 of Respiratory Syncytial Virus was added to two of the three rows in a volume of 50 μl. The same volume of medium was added to the third row to measure the cytotoxicity of the compounds at the same concentrations as those used to measure the antiviral activity. After two hours of incubation, a suspension (4×10^5 cells/ml) of HeLa cells was added to all wells in a volume of 50 μl. The cultures were incubated at 37° C. in a 5% CO2 atmosphere. Seven days after infection the cytotoxicity and the antiviral activity was examined spectrophotometrically. To each well of the microtiter tray, 25 μl of a solution of MTT (3-(4,5-dimethylthiazol-2-yl)-2,5-diphenyltetrazolium bromide) was added. The trays were further incubated at 37° C. for 2 hours, after which the medium was removed from each cup. Solubilization of the formazan crystals was achieved by adding 100 μl 2-propanol. Complete dissolution of the formazan crystals were obtained after the trays have been placed on a plate shaker for 10 min. Finally, the absorbances were read in an eight-channel computer-controlled photometer (Multiskan MCC, Flow Laboratories) at two wavelengths (540 and 690 nm). The absorbance measured at 690 nm was automatically subtracted from the absorbance at 540 nm, so as to eliminate the effects of non-specific absorption.

[1] = system: Respiratory Syncytial Virus; experiment: In vitro screening for activity against Respiratory Syncytial Virus (tetrazolium-based colorimetric assay, protection against cytopathology in HeLa cells); details: for SI (selectivity index, CC50 divided by IC50): CC50 (HeLa) / IC50 (RSV); for IC50: read-out: IC50 (antiviral activity)
From the text: as §1, §2

[2] = Cytotoxicity in mock-infected HeLa cells (tetrazolium-based colorimetric assay); details: human
From the text: as §1, §2

[3] = mock-infected HeLa cells, MTT, seven days, read-out: CC50 (cytotoxic dose for 50% of the cells)
[4] = human respiratory syncytial virus, HeLa, 168 h
[5] = CC50 (cytotoxic dose for 50% of the cells)

| SMILES | SI (selectivity index, CC50 divided by IC50) [1] | CC50 at 7 days [2, 3] [µM] | IC50 [1, 4] [µM] | also measured |
| --- | --- | --- | --- | --- |
| CCOC(c1cccc(C)n1)n1c(NC2CCN(CC(N)C(C)C)CC2)nc2ccccc21 (stereo not drawn) [Compound 58] | 1585 | – | – | CC50 (HeLa cells): 79.4 µM; IC50 ([1]; RSV approx. 100 TCID50, HeLa cells, MTT read seven days after infection): 0.0501 µM |
| CCOC(c1nc(C)ccc1OCc1ccccc1)n1c(NC2CCN(CCN)CC2)nc2ccccc21.Cl.Cl.Cl.O.O (racemic) [Compound 11, (±)-N-[1-(2-aminoethyl)-4-piperidinyl]-1-[ethoxy[6-methyl-3-(phenylmethoxy)-2-pyridinyl]-methyl]-1H-benzimidazol-2-amine trihydrochloride dihydrate] | 79 | 9.95 | 0.126 | – |
| Cc1cccc(C(OCCO)n2c(NC3CCN(CCN)CC3)nc3ccccc32)n1 (racemic) [Compound 13, monohydrate] | >7943 | > 100 | 0.0126 | – |
| COCCOC(c1cccc(C)n1)n1c(NC2CCN(CC(N)C(C)C)CC2)nc2c(C)cc(Cl)cc21.Cl.Cl.Cl.O.O.O (stereo not drawn) [Compound 88, N-[1-(2-amino-3-methylbutyl)-4-piperidinyl]-6-chloro-1-[(2-methoxyethoxy)(6-methyl-2-pyridinyl)methyl]-4-methyl-1H-benzimidazol-2-amine trihydrochloride trihydrate] | 10000 | 20 | 0.002 | – |
| CCOC(c1cccc(Br)n1)n1c(NC2CCN(CC(N)C(C)C)CC2)nc2c(C)cccc21 (racemic) [Compound 87, monohydrate] | 31623 | 10.1 | 0.00032 | – |
| CCOC(c1cccc(Br)n1)n1c(NC2CCN(CC(N)C(C)C)CC2)nc2ccccc21 (racemic) [Compound 10, (±)-N-[1-(2-amino-3-methylbutyl)-4-piperidinyl]-1-[(6-bromo-2-pyridinyl)-ethoxymethyl]-1H-benzimidazol-2-amine] | 63096 | – | – | CC50 at 7 days [2, 5]: 37.9 µM; IC50 ([1]; human respiratory syncytial virus, HeLa, 168 h, RSV approx. 100 TCID50, HeLa cells, MTT read seven days after infection): 0.0006 µM |
| CCOC(c1cccc(C)n1)n1c(NC2CCN(CC(N)C(C)C)CC2)nc2ccccc21 [Compound 67, [(A)(S)]-N-[1-(2-amino-3-methylbutyl)-4-piperidinyl]-1-[ethoxy(6-methyl-2-pyridinyl)methyl]-1H-benzimidazol-2-amine monohydrate] | – | – | – | CC50 at 7 days [2, 5]: 63.4 µM; SI (selectivity index, CC50 divided by IC50) ([1]; monohydrate): 15849; IC50 ([1]; RSV approx. 100 TCID50, HeLa cells, MTT read seven days after infection, monohydrate): 0.004 µM |
